The record followed here is patent US9896482B2, “Beta hairpin peptides having antiviral properties against Dengue virus” (CENTRO DE INGENIERÍA GENÉTICA Y BIOTECNOLOGÍA, priority 2014, dated 2018).

pIC50: −log10 of the molar value. Where a SMILES comes first, the peptide text is derived from it. Bridges are numbered along the chain shown (N, C = ends). [ ]: non-standard residue; d: D form.

Data set [1] concerns DENV serotype 2 (NIBSC code S16803). Description: Plaque reduction assay in Vero cells, DENV2. The conditions noted are these: DENV2, plaque reduction; NA = no detectable activity at concentrations lower than or equal to 100 μM; read-out: IC50, antiviral activity in Vero cells (50% inhibitory activity). The class given is cell-based, Dengue virus. As for the experimental part:
The cells were grown in 24 well plates until the monolayer reached approximately 90% confluence, after which they were washed twice with MEM medium without Fetal Bovine Serum (FBS). Then, peptide dilutions were added and the cell-peptide mixtures were incubated typically for 1 hour at 37° C., followed by the addition of a DENV serotype 2 preparation (NIBSC code S16803) at a multiplicity of infection (m.o.i.) of 0.001. The cells were then incubated for 1 hour at 37° C., and once the period of incubation with the viral inoculum concluded, were washed again to remove unbound virions and incubated for 5 days at 37° C. in high density medium (MEM supplemented with non-essential amino acids, 1% FBS, 1% carboxymethylcellulose) in order to let viral plaques form. Afterwards, the cells were stained with 0.1% Naphtol Blue Black in 0.15 M sodium acetate. Two replicates per experimental point were used in each assay, and three independent determinations were performed for each sample.
Next, it was decided to compare the antiviral activity of peptides PHB4 and HDIII3CL against all four DENV serotypes, with the objective of comparing their respective IC50 values. This comparison was performed with plaque reduction assays on Vero cells, adding the viral inoculum for each serotype (DENV1, NIBSC code West Pac 74, DENV2, NIBSC, code S16803; DENV3, NIBSC, code CH53489; DENV 4, NIBSC code TVP360) at a m.o.i. of 0.001.
(In general: In a plaque reduction assay, fewer plaques than in the control indicate reduced infectivity or spread.)

The nature of data set [2]: Toxicity in Vero cells (MTT assay and manual cell counting). Type of data set: cell-based. The following applies: ‡ non toxic at 1000 μM, read-out: Ctox50. As for the experimental part:
The toxicity of the beta hairpin peptides was assessed with the MTT (3-(4,5-dimethylthiazol-2-yl)-2,5-diphenyltetrazolium bromide, Invitrogen, USA) assay (Mosmann, T. (1983). J. Immunol. Methods 65, 55-63.), and by manual cell counting using a Neubauer chamber. Ninety-six well plates (Costar, USA) were seeded with 200 μL/well of a suspension containing Vero cells at 1×10^5 cells/mL and incubated until the monolayers reached approximately 90% confluence, typically for 18-24 h. After washing the cells twice with DMEM (Dulbecco's Modified Eagle Medium) medium, 50 μL/well were added of the peptide or additive dilutions to be evaluated (Triton ^X-100™ dissolved in PBS was used as positive toxicity control) and the plates were incubated at 37° C. under a 5% CO2 atmosphere for 2 or 24 h. Two different procedures were then employed to measure toxicity: • a) A 2 mg/mL solution of MTT in PBS was added (50 μL/well) and the plates were incubated for further 4 h at 37° C., 5% CO2. The medium was then removed, and 100 μL/well of DMSO were then added to solubilize formazan precipitates. Finally, the optical density (OD) of the supernatants at a wavelength of 540 nm was measured using a plate reader (Sensident Scan™, Merck, Germany). • b) The plates were washed with 200 μL/well of DMEM medium and then a trypsin solution (Sigma, USA) was added at 50 μL/well. After inactivating the trypsin by adding 150 μL/well of DMEM supplemented with 10% FBS, the cells were counted using the Trypan Blue (Gibco, USA) vital stain. The data were processed using the statistical software package Prism v5.3 (GraphPad, USA), using non-linear regression to fit them to a log10 (concentration) vs response curve.
(Tetrazolium dyes change colour on reduction, which living cells bring about.)

Another data set deals with T1, sLRP1-CIV (Homo sapiens, UniProt Q07954).
T1 construct: purchased R&D Systems, USA
Description: Biacore (SPR) binding to immobilized sLRP1-CIV. The following applies: peptides at 20 μM. The method, then: The interaction of the beta hairpin peptides with soluble fragments of the LRP1 receptor was studied by Surface Plasmon Resonance (SPR), using a Biacore X unit. In this technique, one of the interaction partners to be studied is immobilized on the surface of a chip, and the other interaction partner is dissolved in a solution that runs through the measurement cell on top of the interaction surface, under conditions of controlled flow. The association and dissociation of interacting partners is measured in resonance units (RU) and plotted, as a function of time, on charts known as ‘sensorgrams’. SPR, therefore, enables the experimenter to obtain detailed information about the interaction without having to label either interaction partner.
In this example, one channel of a CM5 chip (GE Healthcare, USA) was used to immobilize protein sLRP1-CIV on its surface at high density (see Table 6) and recombinant Human Serum Albumin (rHSA, Sigma-Aldrich, USA) was immobilized on the other channel.
Although it was decided to immobilize sLRP1-CIV at high density because these conditions make easier the detection of any potential interactions with compounds whose molecular weight is lower than that of average proteins (such as the peptides this experiment is intended to study), it must be stressed that in high-density surfaces, mass transfer limitations and the possibility of multivalent binding make difficult the accurate determination of kinetic constants. Therefore, and in order to characterize in greater detail the sLRP1-CIV binding surface, different RAP dilutions (0.6-20 μM) were loaded, and RU were registered under conditions of interaction equilibria (250 sec, see FIG. 13B). […] The data also indicate that immobilized sLRP1-CIV faithfully reproduces the previously reported characteristics of the LRP1-RAP interaction.
The binding of beta hairpin peptides to sLRP1-CIV was studied by loading 20 μM dilutions in running buffer of the different peptide variants onto the sLRP1-CIV chip characterized above. The high strength of the resulting signals is consistent with the binding of aggregated, rather than monomeric forms of the peptides. Therefore, the observed variations between different peptides may reflect either differences in the affinity of unitary peptide interactions or differences in aggregation numbers and/or geometries that lead to variations in the number of peptide units able to simultaneously engage immobilized sLRP1-CIV molecules in a multivalent manner. […] The difference between peptides HDIII3CL2 and HDIII3CL is that the former has an additional C-terminal lysine and has, therefore, a stronger cationic character, which may facilitate additional electrostatic interactions with the negatively charged LRP1 receptor.

`CC[C@H](C)[C@@H]1NC(=O)CNC(=O)[C@H]([C@@H](C)CC)NC(=O)[C@H](C(C)C)NC(=O)[C@H]([C@@H](C)CC)NC(=O)[C@H](CC(N)=O)NC(=O)[C@H](CO)NC(=O)[C@@H](N)CSSC[C@@H](C(=O)N[C@@H](CCCCN)C(=O)N[C@@H](CCCCN)C(=O)N[C@@H](CCCCN)C(N)=O)NC(=O)[C@H](Cc2c[nH]c3ccccc23)NC(=O)[C@H](CC(N)=O)NC(=O)[C@H]([C@@H](C)CC)NC(=O)[C@H](CCCCN)NC(=O)[C@H](CC(C)C)NC(=O)[C@H](C)NC(=O)[C@H](CCCCN)NC(=O)[C@H](CC(=O)O)NC(=O)CNC1=O` [HDIII3CL2, reference compound] (H-CSNIVIGIGDKALKINWCKKK-NH2; disulfide 1-18): in data set [1], the pIC50 – broadly, the IC50 on a negative log10 scale, so that one unit is a factor of ten – is 4.70. Further, in data set [2], the CC50 was determined as 1000 µM.
In the case of `CC(C)[C@@H]1NC(=O)[C@H](CCCCN)NC(=O)[C@H](Cc2c[nH]c3ccccc23)NC(=O)[C@H](CCCCN)NC(=O)[C@H]2CCCN2C(=O)[C@H](CCCNC(=N)N)NC(=O)[C@H]([C@@H](C)O)NC(=O)[C@H](Cc2c[nH]c3ccccc23)NC(=O)[C@H](Cc2ccc(O)cc2)NC(=O)[C@H](C(C)C)NC(=O)[C@@H](N)CSSC[C@@H](C(=O)N[C@@H](CCCCN)C(=O)N[C@@H](CCCCN)C(=O)N[C@@H](CCCCN)C(N)=O)NC(=O)[C@H](Cc2c[nH]c3ccccc23)NC(=O)[C@H](CC(N)=O)NC1=O` [PHB2] (H-CVYWTR[dP]KWKVNWCKKK-NH2; disulfide 1-14), the pIC50 in data set [1] is 4.92. Moreover, the CC50 in data set [2] was 85 µM.
In the case of `CC(C)[C@H](NC(=O)[C@H](CC(N)=O)NC(=O)[C@H](Cc1c[nH]c2ccccc12)NC(=O)[C@@H](NC(=O)[C@H](Cc1c[nH]c2ccccc12)NC(=O)[C@H](CCCCN)NC(=O)[C@H](CC(N)=O)NC(=O)[C@@H](CCCCN)NC(=O)[C@H](CCC(=O)O)NC(=O)[C@H](Cc1c[nH]c2ccccc12)NC(=O)[C@H](CCCCN)NC(=O)[C@H](Cc1c[nH]c2ccccc12)NC(=O)[C@H](CC(N)=O)NC(=O)[C@H](Cc1c[nH]c2ccccc12)NC(=O)[C@@H](N)Cc1ccccc1)[C@@H](C)O)C(=O)N[C@@H](CCC(=O)O)C(=O)NCC(=O)NCC(=O)N[C@@H](CCCCN)C(=O)N[C@@H](CCCCN)C(=O)N[C@@H](CCCCN)C(N)=O` [PHB5] (H-FWNWKWE[dK]NKWTWNVEGGKKK-NH2), the pIC50 in data set [1] is 4.77. Also, the CC50 in data set [2] is 259 µM.
Take `CC(C)[C@H](NC(=O)[C@H](CC(N)=O)NC(=O)[C@H](Cc1c[nH]c2ccccc12)NC(=O)[C@@H](NC(=O)[C@H](Cc1c[nH]c2ccccc12)NC(=O)[C@H](CCCCN)NC(=O)[C@H](CC(N)=O)NC(=O)[C@H]1CCCN1C(=O)[C@H](CCC(=O)O)NC(=O)[C@H](Cc1c[nH]c2ccccc12)NC(=O)[C@H](CCCCN)NC(=O)[C@H](Cc1c[nH]c2ccccc12)NC(=O)[C@H](CC(N)=O)NC(=O)[C@H](Cc1c[nH]c2ccccc12)NC(=O)[C@@H](N)Cc1ccccc1)[C@@H](C)O)C(=O)N[C@@H](CCC(=O)O)C(=O)NCC(=O)NCC(=O)N[C@@H](CCCCN)C(=O)N[C@@H](CCCCN)C(=O)N[C@@H](CCCCN)C(N)=O` [PHB6] (H-FWNWKWE[dP]NKWTWNVEGGKKK-NH2): the pIC50 in data set [1] was 4.48. Further, the CC50 in data set [2] was determined as 411 µM.
For `CC[C@H](C)[C@@H]1NC(=O)[C@H]([C@@H](C)O)NC(=O)[C@H](C(C)C)NC(=O)[C@H](CC(N)=O)NC(=O)[C@H](C(C)C)NC(=O)[C@@H](N)CSSC[C@@H](C(=O)N[C@@H](CCCCN)C(=O)N[C@@H](CCCCN)C(=O)N[C@@H](CCCCN)C(N)=O)NC(=O)[C@H](Cc2c[nH]c3ccccc23)NC(=O)[C@H](CC(N)=O)NC(=O)[C@H](Cc2ccc(O)cc2)NC(=O)[C@H](CCCCN)NC(=O)[C@H](CCCCN)NC(=O)CNC(=O)[C@H](CC(N)=O)NC1=O` [PHB7] (H-CVNVTINGKKYNWCKKK-NH2; disulfide 1-14), in data set [1], the pIC50 was 4.10. For the same compound, the CC50 in data set [2] amounted to 1910 µM.
On to `CC[C@H](C)[C@@H]1NC(=O)[C@H](Cc2ccccc2)NC(=O)[C@H](Cc2c[nH]c3ccccc23)NC(=O)[C@H](CC(N)=O)NC(=O)[C@H](Cc2ccc(O)cc2)NC(=O)[C@H](CCCCN)NC(=O)[C@H](CCCCN)NC(=O)CNC(=O)[C@H](CC(N)=O)NC(=O)[C@H]([C@@H](C)CC)NC(=O)[C@H]([C@@H](C)O)NC(=O)[C@H](C(C)C)NC(=O)[C@H](CC(N)=O)NC(=O)[C@H](C(C)C)NC(=O)[C@H](CCC(=O)O)NC(=O)[C@H]([C@@H](C)CC)NC(=O)[C@@H](N)CSSC[C@@H](C(=O)N[C@@H](CCCCN)C(=O)N[C@@H](CCCCN)C(=O)N[C@@H](CCCCN)C(N)=O)NC1=O` [PHB8] (H-CIEVNVTINGKKYNWFICKKK-NH2; disulfide 1-18), for which, in data set [1], the pIC50 was 4.82. The CC50 in data set [2] was 300 µM.
On the same counts, the results for `CC[C@H](C)[C@@H]1NC(=O)[C@H](Cc2ccccc2)NC(=O)[C@H](Cc2c[nH]c3ccccc23)NC(=O)[C@H](CC(N)=O)NC(=O)[C@H](Cc2ccc(O)cc2)NC(=O)[C@H](CCCCN)NC(=O)[C@H](CCCCN)NC(=O)CNC(=O)[C@H](CC(N)=O)NC(=O)[C@H]([C@@H](C)CC)NC(=O)[C@H]([C@@H](C)O)NC(=O)[C@H](C(C)C)NC(=O)[C@H](Cc2ccc(O)cc2)NC(=O)[C@H](C(C)C)NC(=O)[C@H](CCC(=O)O)NC(=O)[C@H]([C@@H](C)CC)NC(=O)[C@@H](N)CSSC[C@@H](C(=O)N[C@@H](CCCCN)C(=O)N[C@@H](CCCCN)C(=O)N[C@@H](CCCCN)C(N)=O)NC1=O` [PHB9] (H-CIEVYVTINGKKYNWFICKKK-NH2; disulfide 1-18) are 5.15 and 216 µM.
HDIII3CLC-: the “Binding to sLRP1-CIV by SPR, in words” value at sLRP1-CIV was “at most marginal interaction”.
HDIII3CLK-: the “Binding to sLRP1-CIV by SPR, in words” value on sLRP1-CIV was “detectable specific binding”.
Consider HDIII3CLW-, for which the “Binding to sLRP1-CIV by SPR, in words” value on sLRP1-CIV is on record as “detectable specific binding”.
